Test results published in patent publication US20080070987A1, “META-XYLYLENEDIAMINE VANADATE SALTS” (priority 2006, published 2008).
“Also recorded” adds a separate entry of the source.

Test system: isolated rat adipocytes
Experiment: Glucose (2-deoxyglucose) transport in isolated rat adipocytes
Assay type: cell-based, Wistar rats
Conditions: for effect of semicarbazide on the stimulation of glucose transport: 1 mM semicarbazide; for stimulation of glucose transport (2-DG uptake), in words: 45 min incubation; for stimulation of glucose transport compared with the combination of benzylamine and vanadate: combination 100 μM benzylamine and 100 μM vanadate
Procedure: FIG. 1 is a graphical illustration of the hexaquis(benzylammonium) decavanadate effects on glucose transport in isolated rat adipocytes. In this Figure, V corresponds to the rate of 2-deoxyglucose transport (expressed relative to the basal rate), and the results are mean +standard error of the mean (SEM). The adipocytes were incubated in the absence of stimulants in the following conditions: basal (1); in the presence of 100 nM insulin (2); in the presence of hexaquis(benzylammonium) decavanadate at concentrations of 0.5 μM (3), 1 μM (4), 2.5 μM (5), 5 μM (6), 10 μM (7), 25 μM (8), 50 μM (9), and 100 μM (10). The cells were also incubated in the presence of the semicarbazide inhibitor (1 mM), and 10 μM hexaquis(benzylammonium) decavanadate (11), 25 μM of hexaquis(benzylammonium) decavanadate (12) or 50 μM hexaquis(benzylammonium) decavanadate (13). In parallel, the cells were incubated in presence of 100 μM of sodium vanadate and 100 μM of benzylamine, in the absence (14) or in the presence of 1 mM of semicarbazide (15).
FIG. 2 is a graphical illustration of the effects of hexaquis(benzylammonium) decavanadate, pentaquis(benzylammonium) decavanadate and tetraquis(benzylammonium) decavanadate on glucose transport in isolated rat adipocytes. V corresponds to the rate of 2-deoxyglucose uptake (expressed as relation with basal group), and the results are mean +standard error mean. The adipocytes were incubated in the absence of stimulants in the following conditions: basal (1); in the presence of 100 nM of insulin (2); in the presence of hexaquis(benzylammonium) decavanadate at concentrations of 10 μM (3) and 25 μM (4), pentaquis(benzylammonium) decavanadate at concentrations of 10 μM (8) and 25 μM (9), and tetraquis(benzylammonium) decavanadate at concentrations of 10 μM (11) and 25 μM (12). The cells were also incubated in the presence of the semicarbazide inhibitor (1 mM) and, 25 μM of hexaquis(benzylammonium) decavanadate (5), 25 μM of pentaquis(benzylammonium) decavanadate (10) or 25 μM of tetraquis(benzylammonium) decavanadate (13). In parallel, the cells were incubated in the presence of 100 μM of sodium vanadate (6) or in the presence of 250 μM of sodium vanadate (7).
Adipose cells from Wistar rats were incubated for 45 minutes in basal conditions (Basal) or in the presence of 100 nM insulin (Ins) and different concentrations of. hexaquis(benzylammonium) decavanadate (B6V10) in the absence or in the presence of 1 mM semicarbazide (SCZ). Subsequently, 2-DG transport was measured over a 5 min. interval.
The effects of the three tested compounds (B6V10, B5V10 and B4V10) were compared. Adipose cells from Wistar rats were incubated for 45 minutes in basal conditions (Basal) or in the presence of 100 nM insulin (Ins), and different concentrations of decavanadate (V10), hexaquis(benzylammonium) decavanadate (B6V10), pentaquis(benzylammonium) decavanadate (B5V10) or tetraquis(benzylammonium) decavanadate (B4V10) in the absence or in the presence of 1 mM semicarbazide (SCZ). 2-DG transport was measured over 5 min. intervals.
In additional experiments, compounds shown in FIG. 6A, 2-(4-fluoro-phenyl)ethylamine (compound A), 3-phenylpropylamine (compound B), 4-fluoro-benzylamine (compound C) and 4-phenylbutylamine (compound D) were assessed using the experimental methods set forth above for the capacity to stimulate 2-DG uptake in isolated rat adipocytes. Adipose cells from Wistar rats were incubated for 45 minutes in basal conditions (Basal) or in the presence of 100 nM insulin (Ins), and different concentrations of vanadium salts of 2-(4-fluoro-phenyl)-ethylamine (compound A), 3-phenyl-propylamine (compound B), 4-fluoro-benzylamine (compound C) and 4-phenyl-butylamine (compound D). 2-DG transport was measured over 5 min.
The effects of incubation with semicarbazide or phosphatidylinositol 3-kinase inhibitors were also investigated. […]

[1] = listed as hexaquis(benzylammonium) decavanadate

| Substance | effect of semicarbazide on the stimulation of glucose transport | effect of semicarbazide on the stimulation of glucose transport [1] | stimulation of glucose transport (2-DG uptake), in words | stimulation of glucose transport (2-DG uptake), in words [1] | concentration from which stimulation of glucose transport is perceptible (FIG. 1) | concentration of maximal effect on glucose transport (FIG. 1) | EC50 (FIG. 1, read-out: concentration of semimaximal effect on glucose transport) | stimulation of glucose transport compared with the combination of benzylamine and vanadate | stimulation of glucose transport compared with the combination of benzylamine and vanadate [1] | maximal effect on glucose transport as % of the maximal stimulation caused by insulin (insulin 100 nM) | stimulation of glucose transport, in words (concentrations ranging from 5 to 50 μM) |
| --- | --- | --- | --- | --- | --- | --- | --- | --- | --- | --- | --- |
| hexaquis(benzylammonium) decavanadate [Example B6V10] | completely blocked by semicarbazide; also recorded: blocked in the presence of semicarbazide | completely blocked by semicarbazide | concentration-dependent manner | pronounced stimulation on glucose transport | 0.5 µM | 2.5 µM | > 1000 nM | greater stimulation | greater than that produced by the presence of benzylamine and vanadate in combination | 85% |  |
| sodium decavanadate [Example V10, reference compound] |  |  |  |  |  |  |  |  |  |  | did not stimulate glucose transport |
